Reference: patent publication US7678918B2, “Intermediates for imidazonaphthyridines” (3M Innovative Properties Company, priority 1997, dated 2010)

Assays:
IFN = test: Cytokine Induction in Human Cells: interferon (IFN) secreted by PBMCs, A549/encephalomyocarditis bioassay; assay type: cell-based; conditions: 18 to 24 hours; further: call rule not given here
Procedure, shortened: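 Human PBMCs from healthy donors at 1.5-2×10^6 cells/mL in RPMI with 10% FBS, exposed to compounds (typically 0.1 to 100 μM, ≤1% DMSO) for 18 to 24 h at 37° C. Secreted IFN measured by A549/encephalomyocarditis virus cytopathic-effect bioassay, in alpha reference units/mL against NIH human leukocyte IFN standard.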

interferon α = test: Interferon (α) Induction in Human Cells (PBM's, 48 hours, A549 bioassay); assay type: cell-based; design: key: +: indicates that the compound induced interferon α at that particular concentration; −: indicates that the compound did not induce interferon α at that particular concentration; ±: indicates that the results were equivocal at that particular concentration; conditions: 48 hours incubation
Procedure: An in vitro human blood cell system was used to assess interferon induction by compounds of the invention. Activity is based on the measurement of interferon secreted into culture media. Interferon is measured by bioassay.
Whole blood was collected by venipuncture into EDTA vacutainer tubes. Peripheral blood mononuclear cells (PBM's) were separated from whole blood by using either LeucoPREP™ Brand Cell Separation Tubes (available from Becton Dickinson) or Ficoll-Paque® solution (available from Pharmacia LKB Biotechnology Inc, Piscataway, N.J.). The PBM's were suspended at 1×10^6/mL in RPMI 1640 media (available from GIBCO, Grand Island, N.Y.) containing 25 mM HEPES (N-2-hydroxyethylpiperazine-N′-2-ethanesulfonic acid) and L-glutamine (1% penicillin-streptomycin solution added) with 10% heat inactivated (56° C. for 30 minutes) autologous serum added. 200 μL portions of PBM suspension were added to 96 well (flat bottom) MicroTest III sterile tissue culture plates.
The compounds were solubilized in ethanol, dimethyl sulfoxide or tissue culture water then diluted with tissue culture water, 0.01N sodium hydroxide or 0.01N hydrochloric acid (The choice of solvent will depend on the chemical characteristics of the compound being tested.). Ethanol or DMSO concentration should not exceed a final concentration of 1% for addition to the culture wells. Compounds were initially tested in a concentration range of from about 0.1 μg/mL to about 5 μg/mL. Compounds which show induction at a concentration of 0.5 μg/mL were then tested in a wider concentration range.
The solution of test compound was added in a volume (less than or equal to 50 μL) to the wells containing 200 μL of diluted whole blood or of PBM's in media. Solvent and/or media was added to control wells (wells with no test compound) and as needed to adjust the final volume of each well to 250 μL. The plates were covered with plastic lids, vortexed gently and then incubated for 48 hours at 37° C. with a 5% carbon dioxide atmosphere.
Following incubation, the plates were covered with parafilm and then centrifuged at 1000 rpm for 10 to 15 minutes at 4° C. in a Damon IEC Model CRU-5000 centrifuge. Media (about 200 μL) was removed from 4 to 8 wells and pooled into 2 mL sterile freezing vials. Samples were maintained at −70° C. until analysis.
Interferon was determined by bioassay using A549 human lung carcinoma cells challenged with encephalomyocarditis. The details of the bioassay method have been described by G. L. Brennan and L. H. Kronenberg in “Automated Bioassay of Interferons in Micro-test Plates”, Biotechniques, June/July 78, 1983, incorporated herein by reference. Briefly stated the method is as follows: interferon dilutions and A549 cells are incubated at 37° C. for 12 to 24 hours. The incubated cells are infected with an inoculum of encephalomyocarditis virus. The infected cells are incubated for an additional period at 37° C. before quantifying for viral cytopathic effect. The viral cytopathic effect is quantified by staining followed by spectrophotometric absorbance measurements. Results are expressed as alpha reference units/mL based on the value obtained for NIH HU IF-L standard. The interferon was identified as essentially all interferon alpha by testing in checkerboard neutralization assays against rabbit anti-human interferon (beta) and goat anti-human interferon (alpha) using A549 cell monolayers challenged with encephalomyocarditis virus.

TNF = test: Cytokine Induction in Human Cells: tumor necrosis factor (TNF) secreted by PBMCs, ELISA; assay type: cell-based; conditions: 18 to 24 hours; further: call rule not given here
Procedure, shortened: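 Human donor PBMCs at 1.5-2×10^6 cells/mL in RPMI with 10% FBS were exposed to compound, generally at 0.1 to 100 μM (≤1% DMSO final), for 18 to 24 h at 37 °C. Secreted TNF in supernatant was measured by ELISA and reported as pg/mL.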

SMILES	melting point	IFN induction (IFN; Dose Concentration 1.0 μM)	IFN induction (IFN; Dose Concentration 10.0 μM)	IFN induction (IFN; Dose Concentration 100.0 μM)	Interferon (α) Induction in Human Cells (interferon α; Dose Concentration 0.01 μg/mL)	Interferon (α) Induction in Human Cells (interferon α; Dose Concentration 0.05 μg/mL)	Interferon (α) Induction in Human Cells (interferon α; Dose Concentration 0.10 μg/mL)	Interferon (α) Induction in Human Cells (interferon α; Dose Concentration 0.50 μg/mL)	Interferon (α) Induction in Human Cells (interferon α; Dose Concentration 1.0 μg/mL)	Interferon (α) Induction in Human Cells (interferon α; Dose Concentration 5.0 μg/mL)	Interferon (α) Induction in Human Cells (interferon α; Dose Concentration 10.0 μg/mL)	Interferon (α) Induction in Human Cells (interferon α; Dose Concentration 25.0 μg/mL)	Interferon (α) Induction in Human Cells (interferon α; Dose Concentration 50.0 μg/mL)	TNF induction (TNF; Dose Concentration 1.0 μM)	TNF induction (TNF; Dose Concentration 10.0 μM)	TNF induction (TNF; Dose Concentration 100.0 μM)
CC(C)Cn1cnc2c(N)nc3cccnc3c21 [Example 32, 1-(2-Methylpropyl)-1H-imidazo[4,5-c][1,5]naphthyridin-4-amine]	230 to 231.5 °C	+	+	+	−	−	−	−	+	+	+	+	+	−	−	−
CC(C)Cn1cnc2c(N)nc3c(c21)NCCC3 [Example 33, 6,7,8,9-Tetrahydro-1-(2-methylpropyl)-1H-imidazo[4,5-c][1,5]naphthyridin-4-amine]	222 to 226 °C	+	+	+	−	−	−	−	−	+	+	+	+	−	−	−
Cc1nc2c(N)nc3cccnc3c2n1CC(C)C [Example 36, 2-Methyl-1-(2-methylpropyl)-1H-imidazo[4,5-c][1,5]naphthyridin-4-amine]	228 to 230 °C	+	+	+	−	+	+	+	+	+	+	+	+	−	+	−
